This is an account of results in patent publication US11492345B2, “Compounds and their methods of use” (Praxis Precision Medicines, Inc., priority 2017, dated 2022).

The test addresses T1, human Nav1.6 (hNav1.6) (Homo sapiens, UniProt Q9UQD0).
T1 construct: expressed in transfected cells; host or cells: HEK-293 (G418 selection)
Description: Modulation of late sodium current (INaL), PatchXpress electrophysiology. It is filed as cell-based. Particulars: HEK293; 1 μM compound; HEK-293 cells expressing recombinant human Nav channel; late current evoked by 300 nM ATX-II; steady-state inhibition; read-out: INaL v1.6 (1 μM, % Inhibition). The method, then:
Functional characterization of exemplary compounds to modulate INaL expressed by the Nav1.6 voltage-gated sodium channel was accomplished using the PatchXpress™ high throughput electrophysiology platform (Molecular Devices, Sunnyvale, Calif.). HEK-293 cells expressing recombinant, human Nav1.6 (hNav1.6) were grown in DMEM/high-glucose Dulbecco's modified, 10% FBS, 2 mM sodium pyruvate, 10 mM HEPES and 400 μg/mL G418. Cells were grown to 50%-80% confluency prior to harvesting. Trypsinized cells were washed, allowed to recover for 1 hour and then resuspended in extracellular recording solution at a concentration of 1×10^6 cells/ml. The onboard liquid handling facility of the PatchXpress was used for dispensing cells and applying test compounds. Nav late currents were evoked by the application of 300 nM ATX-II. INaL was evoked by depolarizing pulses to 0 mV for 200 ms from a non-inactivating holding potential (e.g., −120 mV) at a frequency of 0.1 Hz. INaL amplitude and stability were determined by analyzing the mean current amplitude over the final 20 ms of the test pulse. […] Percent steady-state inhibition of INaL was calculated as: [(INaL_compound)/(INaL_control)]*100, where INaL_compound and INaL_control represent INaL recorded in the presence or absence of compound, respectively.

T1 sequence (Q9UQD0 whole entry): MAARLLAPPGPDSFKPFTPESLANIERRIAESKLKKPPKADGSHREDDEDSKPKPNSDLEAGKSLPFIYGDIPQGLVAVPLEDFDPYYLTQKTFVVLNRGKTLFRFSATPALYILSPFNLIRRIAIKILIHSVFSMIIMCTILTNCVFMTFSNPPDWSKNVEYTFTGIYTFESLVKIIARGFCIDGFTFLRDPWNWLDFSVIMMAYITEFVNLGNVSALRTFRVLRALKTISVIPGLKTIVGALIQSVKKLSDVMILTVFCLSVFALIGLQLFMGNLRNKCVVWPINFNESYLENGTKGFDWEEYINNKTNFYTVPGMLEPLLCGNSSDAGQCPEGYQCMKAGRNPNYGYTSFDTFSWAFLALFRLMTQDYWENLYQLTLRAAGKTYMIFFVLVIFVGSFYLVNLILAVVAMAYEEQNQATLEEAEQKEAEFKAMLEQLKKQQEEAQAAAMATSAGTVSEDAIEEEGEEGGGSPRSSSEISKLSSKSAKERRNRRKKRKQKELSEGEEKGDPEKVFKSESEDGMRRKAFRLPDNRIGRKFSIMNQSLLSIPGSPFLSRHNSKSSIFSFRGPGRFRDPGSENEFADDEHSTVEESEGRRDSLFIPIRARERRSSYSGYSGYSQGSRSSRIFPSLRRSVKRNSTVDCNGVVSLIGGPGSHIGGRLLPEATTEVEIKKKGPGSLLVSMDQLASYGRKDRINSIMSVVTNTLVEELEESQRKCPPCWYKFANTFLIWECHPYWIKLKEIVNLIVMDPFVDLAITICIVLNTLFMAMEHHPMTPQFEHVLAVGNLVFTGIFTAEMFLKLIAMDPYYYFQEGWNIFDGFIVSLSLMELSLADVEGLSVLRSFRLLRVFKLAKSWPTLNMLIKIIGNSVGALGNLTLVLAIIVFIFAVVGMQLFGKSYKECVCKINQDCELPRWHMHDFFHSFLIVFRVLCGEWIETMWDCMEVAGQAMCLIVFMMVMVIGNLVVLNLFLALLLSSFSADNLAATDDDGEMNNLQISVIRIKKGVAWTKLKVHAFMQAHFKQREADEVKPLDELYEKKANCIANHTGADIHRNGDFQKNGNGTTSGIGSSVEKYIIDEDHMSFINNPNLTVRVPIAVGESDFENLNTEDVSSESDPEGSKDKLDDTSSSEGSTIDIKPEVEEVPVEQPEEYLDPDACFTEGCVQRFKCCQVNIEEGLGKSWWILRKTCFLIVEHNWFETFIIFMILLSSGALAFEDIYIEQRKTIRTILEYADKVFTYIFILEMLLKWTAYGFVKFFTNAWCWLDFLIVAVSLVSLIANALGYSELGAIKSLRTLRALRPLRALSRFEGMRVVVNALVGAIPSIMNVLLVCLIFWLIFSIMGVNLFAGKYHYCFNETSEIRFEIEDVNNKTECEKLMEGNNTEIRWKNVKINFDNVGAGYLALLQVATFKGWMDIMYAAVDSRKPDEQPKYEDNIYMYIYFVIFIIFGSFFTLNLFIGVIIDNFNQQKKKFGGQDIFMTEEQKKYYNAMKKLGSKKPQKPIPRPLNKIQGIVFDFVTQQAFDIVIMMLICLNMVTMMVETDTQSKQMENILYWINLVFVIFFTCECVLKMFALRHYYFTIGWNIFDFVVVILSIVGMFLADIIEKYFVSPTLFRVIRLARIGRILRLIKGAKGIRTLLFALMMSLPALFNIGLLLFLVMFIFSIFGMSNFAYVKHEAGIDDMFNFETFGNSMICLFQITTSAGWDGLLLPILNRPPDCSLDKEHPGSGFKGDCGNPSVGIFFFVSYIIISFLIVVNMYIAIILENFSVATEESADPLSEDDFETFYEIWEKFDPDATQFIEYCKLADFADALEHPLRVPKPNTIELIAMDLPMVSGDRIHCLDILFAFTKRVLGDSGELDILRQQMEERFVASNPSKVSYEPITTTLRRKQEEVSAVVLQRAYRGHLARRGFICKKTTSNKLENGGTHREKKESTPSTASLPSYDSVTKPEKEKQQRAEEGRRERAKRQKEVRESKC

As for `O=C(Cn1c(=O)oc2ccc(-c3cnc(OCC(F)(F)F)c(F)c3)nc21)N1CCCC1` [Compound 137], the inhibition at 1 µM was under 30%. Next, `CCN(C)C(=O)Cn1c(=O)oc2ccc(-c3ccc(OC(F)(F)F)cc3)cc21` [Compound 85]: 30 to 70%; `C[C@@H](O)CCn1c(=O)oc2ccc(-c3ccc(OC(F)(F)F)cc3)cc21` [Compound 97]: over 70%; `O=c1oc2ccc(-c3ccc(OC(F)(F)F)cc3)cc2n1CCc1cncnc1` [Compound 117]: over 70%. In the case of `Cn1cnc(Cn2c(=O)oc3ccc(-c4ccc(OC(F)(F)F)cc4)nc32)n1` [Compound 157] it was 30 to 70%. `CS(=O)(=O)N1CCC[C@@H]1Cn1c(=O)oc2ccc(-c3ccc(OC(F)(F)F)cc3)cc21` [Compound 118]: the inhibition at 1 µM is under 30%. Next, `CO[C@@H]1CCN(C(=O)Cn2c(=O)oc3ccc(-c4ccc(OC(F)(F)F)cc4)cc32)C1` [Compound 126]: 30 to 70%; `CCn1c(=O)oc2ccc(-c3cnc(OCC(F)(F)F)c(F)c3)cc21` [Compound 96]: 30 to 70%. Next, `O=C(Cn1c(=O)oc2ccc(-c3ccc(OC(F)(F)F)cc3)nc21)N1CCCC1` [Compound 79]: 30 to 70%; `O=c1[nH]c2cc(-c3ccc(OC(F)(F)F)cc3)cnc2o1` [Compound 37]: 30 to 70%; `C[C@H](Cn1c(=O)oc2ccc(-c3ccc(OC(F)(F)F)cc3)nc21)c1ncccn1` (single isomer, unassigned) [Compound 149]: over 70%.

For `O=c1oc2ccc(-c3ccc(OC(F)(F)F)cc3)nc2n1CCc1cncnc1` [Compound 124], the inhibition at 1 µM is over 70%. Next, `C[C@H](O)CCn1c(=O)oc2ccc(-c3ccc(OC(F)(F)F)cc3)nc21` (single isomer, unassigned) [Compound 99]: over 70%; `O=c1oc2ccc(-c3ccc(OC(F)(F)F)cc3)cc2n1Cc1cncnc1` [Compound 84]: over 70%; `O=c1oc2ncc(-c3ccc(OC(F)(F)F)cc3)cc2n1CCc1ncccn1` [Compound 92]: under 30%.

For the compound `Cc1cc(OC(F)(F)F)ccc1-c1ccc2oc(=O)n(CC(=O)N3CCCC3)c2n1` [Compound 144], the inhibition at 1 µM is under 30%. For `O=C1CCCN1CCCn1c(=O)oc2ccc(-c3ccc(OC(F)(F)F)cc3)cc21` [Compound 30], the inhibition at 1 µM lay within 30 to 70%. In the case of `O=c1oc2ccc(-c3ccc(OC(F)(F)F)cc3)nc2n1CCc1ncccn1` [Compound 87] it was 30 to 70%; in that of `O=C(Cn1c(=O)oc2ccc(-c3ccc(OC(F)(F)F)cc3)cc21)N1CC[C@@H](O)C1` [Compound 114], under 30%; in that of `O=C(Cn1c(=O)oc2ccc(-c3ccc(OC(F)(F)F)cc3)cc21)N1CC[C@H](O)C1` [Compound 115], under 30%. In the case of `Cc1n[nH]cc1Cn1c(=O)oc2ccc(-c3ccc(OC(F)(F)F)cc3)nc21` [Compound 167] it was under 30%; in that of `O=c1oc2ccc(-c3ccc(OC(F)(F)F)cc3)cc2n1CCc1ccncn1` [Compound 147], over 70%.

Turning to `O=c1oc2ccc(-c3ccc(OC(F)(F)F)cc3)nc2n1CCCO` [Compound 90], the inhibition at 1 µM lay within 30 to 70%. Next, `O=c1oc2ccc(-c3ccc(OC(F)(F)F)cc3)cc2n1CC1CCOC1` (centres unmarked) [Compound 68]: over 70%; `Cc1oncc1Cn1c(=O)oc2ccc(-c3ccc(OC(F)(F)F)cc3)nc21` [Compound 154]: over 70%.

Regarding `CC(C(=O)N1CCCC1)n1c(=O)oc2ccc(-c3ccc(OC(F)(F)F)cc3)cc21` (centres unmarked) [Compound 45], the inhibition at 1 µM is under 30%. In the case of `O=C(Cn1c(=O)oc2ccc(-c3ccc(OC(F)(F)F)cc3)nc21)N1CCCCC1` [Compound 119] it was over 70%. Next, `C[C@@H](O)CCn1c(=O)oc2ccc(-c3ccc(OC(F)(F)F)cc3)nc21` (single isomer, unassigned) [Compound 100]: over 70%; `CC(C)n1c(=O)oc2ccc(-c3ccc(OC(F)(F)F)cc3)nc21` [Compound 78]: over 70%. As for `O=c1oc2ccc(-c3ccc(OC(F)(F)F)cc3)nc2n1CCc1ccncn1` [Compound 146], the inhibition at 1 µM is over 70%. In the case of `CCN(CC)C(=O)CCn1c(=O)oc2ccc(-c3ccc(OC(F)(F)F)cc3)cc21` [Compound 28] it was over 70%; in that of `O=C(CCn1c(=O)oc2ccc(-c3ccc(OC(F)(F)F)cc3)cc21)N1CCCC1` [Compound 26], over 70%. In the case of `O=c1oc2ccc(-c3ccc(OC(F)(F)F)cc3)cc2n1CC1CCOCC1` [Compound 56] it was over 70%; in that of `O=c1oc2ccc(-c3ccc(OC(F)(F)F)cc3)nc2n1CC1CCOCC1` [Compound 101], over 70%; in that of `Cn1c(=O)oc2ncc(-c3ccc(OC(F)(F)F)cc3)cc21` [Compound 43], under 30%. On to `CC(=O)N1CCC[C@H]1Cn1c(=O)oc2ccc(-c3ccc(OC(F)(F)F)cc3)cc21` [Compound 111], for which the inhibition at 1 µM lay in the range of 30 to 70%. Regarding `O=c1oc2ccc(-c3ccc(OC(F)(F)F)cc3)cc2n1CC(F)(F)F` [Compound 2], the inhibition at 1 µM lay within 30 to 70%.

For `Cn1ncnc1Cn1c(=O)oc2ccc(-c3ccc(OC(F)(F)F)cc3)nc21` [Compound 164], the inhibition at 1 µM lay within 30 to 70%.

Consider `C[C@@H](Cn1c(=O)oc2ccc(-c3ccc(OC(F)(F)F)cc3)nc21)c1ncccn1` (single isomer, unassigned) [Compound 150], for which the inhibition at 1 µM lay within 30 to 70%. For `Cc1nnc(Cn2c(=O)oc3ccc(-c4ccc(OC(F)(F)F)cc4)nc32)o1` [Compound 153], the inhibition at 1 µM lay within 30 to 70%. With `O=c1oc2ccc(-c3ccc(OC(F)(F)F)cc3)nc2n1C[C@@H]1CC1(F)F` (single isomer, unassigned) [Compound 107], the inhibition at 1 µM lay in the range of 30 to 70%. With `O=c1oc2ccc(-c3ccc(OC(F)(F)F)cc3)cc2n1CCc1cnccn1` [Compound 120], the inhibition at 1 µM is over 70%. In the case of `O=c1oc2ccc(-c3ccc(OC(F)(F)F)cc3)cc2n1C[C@@H]1CCCO1` [Compound 104] it was over 70%; in that of `O=C(O)Cn1c(=O)oc2ccc(-c3ccc(OC(F)(F)F)cc3)cc21` [Compound 16, 2-[2-oxo-5-[4-(trifluoromethoxy)phenyl]-1,3-benzoxazol-3-yl]acetic acid], under 30%; in that of `Cc1nnc(Cn2c(=O)oc3ccc(-c4ccc(OC(F)(F)F)cc4)cc32)o1` [Compound 51], 30 to 70%.

For the compound `CCn1c(=O)oc2ccc(-c3ccc(OC(F)(F)F)cc3)nc21` [Compound 76], the inhibition at 1 µM is over 70%. In the case of `Cc1nc(Cn2c(=O)oc3ccc(-c4ccc(OC(F)(F)F)cc4)nc32)no1` [Compound 162] it was over 70%; in that of `O=c1oc2ccc(-c3ccc(OC(F)(F)F)cc3)nc2n1Cc1cn[nH]c1` [Compound 165], 30 to 70%; in that of `O=c1oc2ccc(-c3ccc(OC(F)(F)F)cc3)cc2n1C[C@H]1CCCOC1` (single isomer, unassigned) [Compound 73], over 70%. In the case of `Cn1c(=O)n(CC(F)(F)F)c2cc(-c3ccc(OC(F)(F)F)cc3)ccc21` [Compound 32] it was 30 to 70%.
